The results in this text go back to patent publication US11852634B2, “Use of AKT phosphorylation as a biomarker for prognosing neurodegenerative diseases and treating same” (Yeda Research and Development Co. Ltd., priority 2011, dated 2023).

Where no end group is shown, it is not given here.

This data set relates to healthy mice. The data set can be described thus: Repeated-dose safety in healthy mice. Type of data set: in vivo. The following applies: dose four times higher than the effective dose, daily, for 28 days. An excerpt: Accordingly, the peptide of the invention is suitable for chronic use. In addition, the peptide of the invention was shown effective when administered intravenously (IV), intraperitoneally (IP) or in combination of these two modes of delivery.

As to LPPLPYP [SEQ ID NO: 1, LPPLPYP], the Side effects result was “did not initiate any detectable side effect”.
